Experimental data: patent publication US8192962B2, “Processes for detecting toxic substances” (Daikin Industries, Ltd., priority 2001, dated 2012)

System: Transport facilitation protein genes
Assay: DNA chip mRNA expression in yeast, transport facilitation protein genes (Table 5)
Type: cell-based, Saccharomyces cerevisiae S288C
Outline: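 Untreated cultures served as reference for log-phase S288C yeast given a growth-inhibiting, non-lethal toxicant dose for 2 h at 25° C. in YPD. Gene expression was measured on a whole-genome DNA chip from Cy3/Cy5-labeled cDNA.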

Measured: The level of expressed mRNA in the presence of chemical substance/The level of expressed mRNA in the absence of chemical substance

C=CC=O [(14), acrolein]
0.6: yeast gene YBL099W | yeast gene YBR127C | yeast gene YDR497C
1.5: yeast gene YBR052C | yeast gene YDR086C | yeast gene YDR298C | yeast gene YGR197C
1.7: yeast gene YDL198C
0.9: yeast gene YBR207W | yeast gene YBR298C | yeast gene YDR039C | yeast gene YDR342C | yeast gene YDR387C | yeast gene YFL054C | yeast gene YGL006W | yeast gene YGR082W | yeast gene YGR138C | yeast gene YGR224W | yeast gene YGR281W
1.0: yeast gene YDR270W | yeast gene YFL041W | yeast gene YFL050C | yeast gene YGL104C | yeast gene YGL255W
1.3: yeast gene YBR294W | yeast gene YCL038C | yeast gene YER053C | yeast gene YGR065C
1.8: yeast gene YBR068C
0.4: yeast gene YEL065W
1.2: yeast gene YDL245C | yeast gene YGL008C | yeast gene YGR055W | yeast gene YGR096W
1.4: yeast gene YBR293W | yeast gene YEL027W
0.8: yeast gene YBL030C | yeast gene YCR024C-A | yeast gene YCR037C | yeast gene YDR038C | yeast gene YDR343C | yeast gene YDR345C | yeast gene YEL063C | yeast gene YFL011W | yeast gene YGL167C
0.7: yeast gene YCL025C | yeast gene YDL128W | yeast gene YGR191W | yeast gene YGR260W
1.1: yeast gene YBR132C | yeast gene YBR295W | yeast gene YCR098C | yeast gene YDL210W
